# Test results: patent US6855728B2, “Small-molecule modulators of hepatocyte growth factor / scatter factor activities” (North Shore-Long Island Jewish Health System, priority 2001, dated 2005)
# Experiments:
# [1] = tested on: Endothelial cells (HUVECs); assay: Endothelial cell (HUVEC) proliferation assay, 3H thymidine incorporation, compound without added growth factor; assay type: cell-based, human
# Summary of the method: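 HUVECs grown 24 h in EGM-2, starved 1-2 h in RPMI-1% BSA, then exposed 24 h at 37 degrees C to compounds at 1 to 12 microgram/ml without added growth factors. Proliferation read as 3H thymidine incorporation over 4 to 5 h; human iliac artery endothelial cells also used similarly.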
# [2] = tested on: HGF/SF induced proliferation of HUVEC; assay: Endothelial cell (HUVEC) proliferation assay in the presence of exogenously-added HGF/SF; assay type: cell-based, human
# Description: To evaluate inhibitors of activity, compounds may be evaluated directly for anti-proliferative activities, such as the inhibition of cellular proliferation, inhibition of tumor growth, inhibition of scatter, and inhibition of gene expression, and may also be evaluated on their ability to inhibit activity when exposed to cells together with. In such instances, the scatter and/or proliferative activities induced by added will be inhibited by the attendant presence of an inhibitory compound of the invention.
# (§1) Cell proliferation assays Endothelial cells (HUVECs) were seeded in 48 well plates at a density of 10,000 to 20,000 cells per well in the normal growth medium (EGM-2-Clonetics) containing 2% fetal bovine serum, FGF, VEGF, IGF, ascorbic acid, EGF, GA, heparin and hydrocortisone. The cells were grown normally in the growth medium for 24 hr at 37 degrees C. and 5% CO2. The cells were then rinsed with RPMI-1% BSA and starved for 1-2 hrs. The stock solutions of all the compounds were made at a concentration of 10 mg/ml in DMSO and diluted in RPMI-1% BSA at a final concentrations of 1 to 12 microgram/ml. The cells were then washed and treated with the compounds and incubated for another 24 hr at 37 degrees C. Then ^3H thymidine (0.5 microgram/ml in RPMI-BSA) was added to the cells and incubated at 37 degrees C. for 4 to 5 hours. The unincorporated thymidine was removed by washing the cells four times with 1× PBS. Then the cells were lysed with 0.5M NaOH for 30 min and the radioactivity counted in the beta counter.
# [3] = tested on: growth of blood vessels from subcutaneous tissue into Matrigel; assay: In vivo blood vessel ingrowth assay (Matrigel); conditions: mice, Matrigel mixed with compound injected subcutaneously, 10 days
# Procedure: Angiogenesis was assayed as growth of blood vessels from subcutaneous tissue into a solid gel of basement membrane containing the test compound. Matrigel in liquid form (0.5 ml) was mixed with a compound of the invention, or basic fibroblast growth factor as a control, and injected into the abdominal subcutaneous tissue of mice as previously described (Kibbey, M. C., Grant, D. S. Auerbach, R. and Kleinman, H. K. [1992] Role of the SIKVAV site of laminin in promotion of angiogenesis and tumor growth: an in vivo Matrigel model. J. Natl. Can. Inst. 84, 1633-38). After 10 days, mice were sacrificed and the Matrigel plugs were removed, fixed, sectioned, stained and examined for ingrowth of blood vessels.
# DU145 cells = assay: Clonogenic assay; assay type: cell-based; conditions: clonogenic assay over 7 days
# Procedure: The effect of (4-(2-chloro-6-fluorobenzyl)-3,5-dimethyl-1H-pyrazole-1-yl)(3-(2,6-dichlorophenyl)-5-methylisoxazol-4-yl)methanone (FIG. 7) and 1-(4-chloro-3-methylphenyl)-3-(2,6-dichlorophenyl)-prop-2-en-1-one were evaluated in a clonogenic assay over 7 days.
# [4] = tested on: VEGF-mediated increase in endothelial cell proliferation; assay: Endothelial cell proliferation assay in the presence of VEGF; assay type: cell-based; conditions: 1.5 micromolar
# Procedure: as §1
# (§2) In endothelial cell proliferation assays as described above, the effect of the compound 1-(4-chloro-3-methylphenyl)-3-(2,6-dichlorophenyl)-prop-2-en-1-one was evaluated in the presence of HGF/SF, VEGF or FGF for its effects on antagonizing the growth factor-induced stimulation of endothelial cell proliferation.
# [5] = tested on: FGF-mediated increase in endothelial cell proliferation; assay: Endothelial cell proliferation assay in the presence of FGF; assay type: cell-based; conditions: 1.5 micromolar
# Procedure: as §1, §2
# [6] = tested on: human endometrial cancer cells; assay: Effect on growth of tumor cells; assay type: cell-based; conditions: 40 micrograms/ml
# Procedure: Effect on growth of tumor cells. The activity of the compounds herein to promote or inhibit the growth of tumor cells was evaluated using human endometrial cancer cells.
# c-Met receptor = c-Met receptor (Homo sapiens, UniProt P08581); assay: HUVEC proliferation assay with free c-Met receptor (specificity); assay type: cell-based
# Description: The following assays were used to evaluate the activity of the various compounds discussed herein. Certain of the compounds and groups thereof express-like activity, i.e., they induce scatter, cell proliferation, inhibit apoptosis, among other activities, and if acting through the c-Met receptor, agonize or stimulate c-Met receptor activity. The specificity for such compounds working through the c-Met receptor may be identified by performing the stimulation assay in the presence of free c-Met receptor. Reduction of a proliferative response in the presence of c-Met indicates such specificity.
# Cell proliferation assays Endothelial cells (HUVECs) were seeded in 48 well plates at a density of 10,000 to 20,000 cells per well in the normal growth medium (EGM-2-Clonetics) containing 2% fetal bovine serum, FGF, VEGF, IGF, ascorbic acid, EGF, GA, heparin and hydrocortisone. The cells were grown normally in the growth medium for 24 hr at 37 degrees C. and 5% CO2. The cells were then rinsed with RPMI-1% BSA and starved for 1-2 hrs. […] Then the cells were lysed with 0.5M NaOH for 30 min and the radioactivity counted in the beta counter.
# The specificity of the stimulation of endothelial cell growth by the compound as measured by ^3H-thymidine incorporation was tested by pre-incubation of cells with the HGF/SF receptor c-met. […]
# MDCK cells = assay: Scatter assay; assay type: cell-based; conditions: 6 microgram/ml; microscopic examination
# Procedure: Scatter Assay. A standard assay for scatter of MDCK cells was performed. Results were evaluated by microscopic examination.
# [7] = tested on: MDCK cells exposed to adriamycin; assay: Anti-apoptotic activity assay (MTT viability, adriamycin-induced apoptosis); assay type: cell-based
# another cell line = assay: Anti-apoptotic activity assay in another cell line; assay type: cell-based
# Procedure: Anti-apoptotic Activity Assay. The ability of compounds of the present invention to protect cells-from apoptosis was performed using a MTT viability assay with MDCK cells exposed to adriamycin (15 micromolar) to induce apoptosis. HGF/SF was evaluated as a positive control.
# In another cell line, 90% protection was afforded by (4-chlorophenyl)[3-(2-(2-thienyl)vinyl)-1H-pyrazol-1-yl]methanone.
# [8] = tested on: mice following removal of the femoral artery; assay: In vivo blood flow improvement assay; conditions: administered to mice for seven days following removal of the femoral artery
# Chain of c-Met receptor (P08581 25-1390): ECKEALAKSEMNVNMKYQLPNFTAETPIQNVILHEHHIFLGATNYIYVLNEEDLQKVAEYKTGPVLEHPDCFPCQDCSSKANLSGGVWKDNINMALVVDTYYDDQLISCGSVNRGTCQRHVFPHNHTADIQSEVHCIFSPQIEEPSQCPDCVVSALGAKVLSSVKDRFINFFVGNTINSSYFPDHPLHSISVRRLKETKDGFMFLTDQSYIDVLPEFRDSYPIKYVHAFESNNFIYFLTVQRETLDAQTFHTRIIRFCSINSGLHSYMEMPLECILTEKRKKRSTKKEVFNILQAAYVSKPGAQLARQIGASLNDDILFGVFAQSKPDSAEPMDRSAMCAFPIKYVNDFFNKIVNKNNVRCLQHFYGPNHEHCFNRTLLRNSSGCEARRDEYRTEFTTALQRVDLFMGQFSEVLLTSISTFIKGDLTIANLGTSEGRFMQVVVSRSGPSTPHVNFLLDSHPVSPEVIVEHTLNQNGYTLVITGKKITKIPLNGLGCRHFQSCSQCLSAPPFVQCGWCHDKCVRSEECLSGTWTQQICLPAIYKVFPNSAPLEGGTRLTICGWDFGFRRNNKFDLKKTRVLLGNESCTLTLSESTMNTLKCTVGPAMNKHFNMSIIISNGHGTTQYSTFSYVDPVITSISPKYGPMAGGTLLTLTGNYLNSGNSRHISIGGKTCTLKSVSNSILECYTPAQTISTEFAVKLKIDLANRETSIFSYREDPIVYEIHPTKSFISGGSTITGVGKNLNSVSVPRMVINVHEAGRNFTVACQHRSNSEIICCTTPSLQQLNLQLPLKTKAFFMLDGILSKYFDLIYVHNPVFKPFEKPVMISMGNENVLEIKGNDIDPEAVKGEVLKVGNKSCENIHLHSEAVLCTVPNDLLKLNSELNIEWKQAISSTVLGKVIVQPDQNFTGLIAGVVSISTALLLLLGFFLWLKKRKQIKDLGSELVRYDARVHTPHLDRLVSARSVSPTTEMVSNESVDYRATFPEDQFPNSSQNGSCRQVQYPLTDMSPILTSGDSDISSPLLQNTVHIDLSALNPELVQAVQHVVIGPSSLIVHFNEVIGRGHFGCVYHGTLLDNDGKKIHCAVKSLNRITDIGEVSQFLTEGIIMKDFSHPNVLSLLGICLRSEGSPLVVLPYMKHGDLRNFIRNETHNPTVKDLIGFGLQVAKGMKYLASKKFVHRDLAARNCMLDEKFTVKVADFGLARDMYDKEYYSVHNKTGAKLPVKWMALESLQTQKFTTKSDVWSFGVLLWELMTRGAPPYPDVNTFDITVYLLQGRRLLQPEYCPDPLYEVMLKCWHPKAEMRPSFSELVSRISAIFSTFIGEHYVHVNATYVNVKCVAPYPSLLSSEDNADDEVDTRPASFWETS
compound,measurement,setting,value
"Cc1cc(C(=O)C=Cc2c(Cl)cccc2Cl)ccc1Cl [1-(4-chloro-3-methylphenyl)-3-(2,6-dichlorophenyl)-prop-2-en-1-one]",Activity at 1 ug/ml concentration Without HGF/SF (result in words),"[1]; 1 ug/ml, without HGF/SF",No effect at 1 ug/ml
same,effect on HGF/SF-mediated increase in endothelial cell proliferation,[2]; 1.5 micromolar,suppressed
same,Inhibition at 6-12 micrograms/ml With,"[2]; 6-12 micrograms/ml, with HGF/SF, inhibition of endothelial cell proliferation",40-80% inhibition
same,ingrowth of blood vessels into Matrigel plug,[3],nearly complete inhibition of blood vessel ingrowth
same,DU145 cell growth,DU145 cells,dose responsive inhibition
same,effect on VEGF-mediated increase in endothelial cell proliferation,[4],suppressed
same,effect on FGF-mediated increase in endothelial cell proliferation,[5],suppressed
"Cc1nn(C(=O)c2c(-c3c(Cl)cccc3Cl)noc2C)c(C)c1Cc1c(Cl)cccc1Cl [[4-(2,6-dichlorobenzyl)-3,5-dimethyl-1H-pyrazol-1-yl][3-(2,6-dichlorophenyl)-5-methylisoxazol-4-yl]methanone]","effect on HUVEC proliferation, substance alone (FIG. 5)",[1],no effect
same,blockage of HGF/SF induced proliferation of HUVEC,[2]; 12 micrograms/ml,40-60%
same,effect on HGF/SF-mediated stimulation of HUVEC proliferation (FIG. 5),[2]; combination of HGF/SF and the compound,significant suppression
same,inhibition at 40 µg/mL,[6],40 to 50%
O=C(c1ccc(Cl)cc1)n1ccc(C=Cc2cccs2)n1 [(4-chlorophenyl)[3-(2-(2-thienyl)vinyl)-1H-pyrazol-1-yl]methanone],stimulation of 3H-thymidine incorporation,"[1]; compound by itself, 6 microgram/ml",84%
same,inhibition of the compound's stimulation of 3H-thymidine incorporation in the presence of c-Met,c-Met receptor; compound 6 microgram/ml plus c-Met receptor 100 microgram/ml,75%
same,compound-induced EC proliferation blocked in the presence of C-met receptor,"c-Met receptor; compound 12 microgram/ml incubated with C-met receptor 5 microgram/ml for 30 min, then added to cells",40%
same,scatter of MDCK cells,MDCK cells,caused scattering of MDCK cells similar to that seen with HGF/SF
same,protection from adriamycin-induced apoptosis,[7]; MDCK cells,94%
same,"cell viability, substance alone",[7]; without adriamycin,unchanged
same,protection from adriamycin-induced apoptosis,another cell line,90%
same,blood flow,[8],significant improvement in blood flow
